The text below walks through data of publication doi:10.1101/2023.08.28.23294750v1 (medrxiv, 2023).

The target of the first test is T1, SARS-CoV-2 3CL^pro (Severe acute respiratory syndrome coronavirus 2, UniProt P0DTD1). As to the kind of experiment: FRET assay, fluorogenic peptide cleavage. The format is biochemical.
Details: not given
In turn, `O=C(O)c1cc(O)c2c(c1)C(=O)c1cccc(O)c1C2=O` [compound 3, rhein] gave a half-maximal inhibitory concentration (IC50) of 4.6 µM. This counts as single-digit micromolar.
The same measure, in the same setting: the value for `Cc1c(C(=O)O)c(O)cc2c1C(=O)c1c(O)cccc1C2=O` [compound 10, 3,8-dihydroxy-1-methylanthraquinone-2-carboxylic acid] was 37.2 µM.

Another test addresses T1, SARS-CoV-2 3CL^pro. As to the kind of experiment: FRET assay, fluorogenic peptide cleavage. The format is biochemical. The settings on record: read-out: % inhibition at 100 μmol/L.
As for `OCCc1ccc(O)c(O)c1` [hydroxytyrosol], the inhibition at 100 µM is less than 50%.
Still for that read-out and setting: the value for `COc1cc([C@H]2OC[C@H]3[C@@H]2CO[C@H]3c2ccc(OC)c(OC)c2)ccc1O` [phillygenin] was less than 50%.
Still for that read-out and setting: the figure for `O=C(O)c1cc(O)c(O)c(O)c1` [compound 42, gallic acid] is less than 50%; for `COc1c(O)cc(C(=O)O)cc1O` [M42M2, 4-O-methylgallic acid] it is less than 50%.
Take `O=C1c2cccc(O)c2C(=O)c2c(O)cc(CO)cc21` [compound 11, aloe-emodin]: the inhibition at 100 µM is less than 50%.
